Data published in ChEMBL document CHEMBL1122080, “2- and 6-methyl-1,4-naphthoquinone derivatives and potential bioreductive alkylating agents” (1982).

Assays:
Assay type in all cases: functional
Mus musculus [1] = test: Ratio of the survival time of treated to control animals at dose 20 mg/kg
Mus musculus [2] = test: Average weight change in mice bearing sarcoma 180 ascites cells at dose 20 mg/kg
Mus musculus [3] = test: Average weight change in mice bearing sarcoma 180 ascites cells at dose 5 mg/kg
Mus musculus [4] = test: Ratio of the survival time of treated to control animals at dose 10 mg/kg
Mus musculus [5] = test: Average weight change in mice bearing sarcoma 180 ascites cells at dose 10 mg/kg
Mus musculus [6] = test: Ratio of the survival time of treated to control animals at dose 5 mg/kg
Mus musculus [7] = test: Average weight change in mice bearing sarcoma 180 ascites cells at dose 2.5 mg/kg
Mus musculus [8] = test: Ratio of the survival time of treated to control animals at dose 2.5 mg/kg

Compound	T/C (Mus musculus [1])	Average weight change (Mus musculus [2])	Average weight change (Mus musculus [3])	T/C (Mus musculus [4])	Average weight change (Mus musculus [5])	T/C (Mus musculus [6])	Average weight change (Mus musculus [7])	T/C (Mus musculus [8])
CNC(=O)OCc1ccc2c(c1)C(=O)C=CC2=O	0.81	-10.8%	-7.6%	1.61	-7.8%	1.71	–	–
O=C1C=C(CO)C(=O)c2ccccc21	0.22	–	-6.4%	0.45	-15.2%	1.16	–	–
O=C(NCCCl)OCc1ccc2c(c1)C(=O)C=CC2=O	0.5	-17.3%	-9%	1.63	-11.7%	1.47	–	–
COCC1=CC(=O)c2ccccc2C1=O	1.07	-19%	17%	1.38	1.6%	0.98	–	–
O=C1C=CC(=O)c2cc(CO)ccc21	–	–	–	0.17	–	–	-9.1%	1.16
CC(=O)OCc1ccc2c(c1)C(=O)C=CC2=O	0.48	-7.4%	-2.9%	0.93	–	1.35	–	–
CS(=O)(=O)OCC1=CC(=O)c2ccccc2C1=O	1.41	-8.8%	-6.3%	1.57	-8.3%	1.92	–	–
CCOCc1ccc2c(c1)C(=O)C=CC2=O	0.42	–	-6.4%	0.97	-10.3%	1.32	–	–
Cc1ccc(S(=O)(=O)OCc2ccc3c(c2)C(=O)C=CC3=O)cc1	1.64	-15.2%	-3.8%	1.82	-11.6%	1.44	–	–
O=C1C=C(CCl)C(=O)c2ccccc21	1.3	-16.4%	-2%	1.47	-9.8%	1.4	–	–
CC1=CC(=O)c2ccccc2C1=O [MENADIONE]	1.34	-2%	18.7%	1.03	17.3%	0.85	–	–
Cc1ccc(S(=O)(=O)OCC2=CC(=O)c3ccccc3C2=O)cc1	1.62	-7.4%	2.8%	2.16	-4.4%	1.77	–	–
O=C1C=CC(=O)c2cc(CCl)ccc21	0.22	–	-10.4%	1.05	-13.5%	1.38	–	–
CC(=O)OCC1=CC(=O)c2ccccc2C1=O	0.7	-10.2%	-9.3%	1.62	-14.4%	1.66	–	–
CNC(=O)OCC1=CC(=O)c2ccccc2C1=O	0.51	-11.4%	-12.6%	1.51	-10.5%	1.39	–	–
O=C1C=CC(=O)c2cc(CBr)ccc21	0.57	-12.5%	-7.8%	1.42	-11.3%	1.46	-4.2%	2.07
O=C(NCCCl)OCC1=CC(=O)c2ccccc2C1=O	1.96	-13.8%	-4.6%	1.71	-11.4%	2.08	–	–
O=C1C=C(CBr)C(=O)c2ccccc21	1.69	-9.1%	-5.4%	1.49	-7.7%	1.73	1.7%	1.61
Cc1ccc2c(c1)C(=O)C=CC2=O	0.26	–	-11.5%	0.38	-11.1%	1.09	–	–
CS(=O)(=O)OCc1ccc2c(c1)C(=O)C=CC2=O	1.44	-13.3%	-6.3%	1.43	-11.8%	1.71	–	–
